Results on 34 compounds are retold here after patent publication US20230234943A1, “TREX1 INHIBITORS AND USES THEREOF” (Tempest Therapeutics, Inc., priority 2020, published 2023).

The target in the assay is T1, Human TREX1 enzyme (amino acids 1-242) (Homo sapiens, UniProt Q9NSU2).
T1 construct: Human TREX1 enzyme (amino acids 1-242)
T1 sequence (Q9NSU2 1-242): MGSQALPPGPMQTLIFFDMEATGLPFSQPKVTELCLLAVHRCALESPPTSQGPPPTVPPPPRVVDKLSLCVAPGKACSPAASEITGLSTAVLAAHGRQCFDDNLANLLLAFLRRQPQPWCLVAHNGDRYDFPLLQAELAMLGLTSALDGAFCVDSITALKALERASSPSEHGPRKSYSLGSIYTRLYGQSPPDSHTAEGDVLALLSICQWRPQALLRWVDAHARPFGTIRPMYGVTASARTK
In words: Human TREX1 enzymatic assay with dsDNA native oligonucleotide (Picogreen fluorescence). Type of assay: biochemical. Conditions: 2 mM dithiothreitol in assay buffer; 50 nM dsDNA oligonucleotide; 30 min preincubation at 25° C.; read-out: TREX1/Human + DTT IC50 AVG. In outline:
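TREX1 (0.8–0.16 nM final) preincubated with compound (300 μM–13 nM or 30 μM–1.5 nM, 2% DMSO) 30 min at 25 °C in Tris pH 7.7, 5 mM MgCl2, 2 mM DTT. Annealed dsDNA (50 nM) added for 5–15 min at 25 °C; EDTA quench with Picogreen fluorescence readout.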
Take `O=C(O)c1ccc(-c2nc3ccncc3[nH]2)cc1O` [Example 2, 2-hydroxy-4-(3H-imidazo[4,5-c]pyridin-2-yl)benzoic acid]: the IC50 is 10 to 100 µM.
Next, `COc1cc(-c2nc3ccc(-c4nnco4)cc3n2C2(C)COC2)c(F)c(O)c1O` [Example 238, 3-fluoro-6-methoxy-4-[1-(3-methyloxetan-3-yl)-6-(1,3,4-oxadiazol-2-yl)-1H-1,3-benzodiazol-2-yl] benzene-1,2-diol]: at most 0.1 µM.
Next, `CCn1c(-c2cc(O)c(O)c(OC(C)C)c2)nc2cccnc21` [Example 29, 5-(3-ethyl-3H-imidazo[4,5-b]pyridin-2-yl)-3-isopropoxybenzene-1,2-diol]: over 100 µM.
Next, `COc1cc(-c2nc3ccc(NC(C)=O)cc3n2C2(C)COC2)c(F)c(O)c1O` [Example 207, N-[2-(2-fluoro-3,4-dihydroxy-5-methoxyphenyl)-1-(3-methyloxetan-3-yl)-1H-1,3-benzodiazol-6-yl]acetamide]: at most 0.1 µM.
As to `COc1cc(-c2nc3cc(N4CCN(C(=O)CCCCN)CC4)ccc3n2COCC[Si](C)(C)C)cc(O)c1O` [Example 128, 5-amino-1-(4-(2-(3,4-dihydroxy-5-methoxyphenyl)-1-((2-(trimethylsilyl)ethoxy)methyl)-1H-benzo[d]imidazol-5-yl)piperazin-1-yl)pentan-1-one], the IC50 lay in the range of 10 to 100 µM.
As for `COc1cc(-c2nc3ccccc3n2C2CCOCC2)c(C)c(O)c1O` [Example 149, 6-methoxy-3-methyl-4-(1-(tetrahydro-2H-pyran-4-yl)-1H-benzo[d]imidazol-2-yl)benzene-1,2-diol], the IC50 was 10 to 100 µM.
Next, `COc1cc(-c2nc3cc(N4CCN(C(=O)c5ccc(C(=O)O)cc5)CC4)ccc3[nH]2)cc(O)c1O` [Example 127, 4-(4-(2-(3,4-dihydroxy-5-methoxyphenyl)-1H-benzo[d]imidazol-5-yl)piperazine-1-carbonyl)benzoic acid]: 10 to 100 µM.
Next, `COc1cc(-c2nc3cc(S(=O)(=O)Nc4ccccc4)ccc3n2C2COC2)cc(O)c1O` [Example 46, 2-(3,4-dihydroxy-5-methoxyphenyl)-1-(oxetan-3-yl)-N-phenyl-1H-benzo[d]imidazole-5-sulfonamide]: 10 to 100 µM; `COc1cc(-c2nc3ccncc3n2C2COC2)cc(O)c1O` [Example 43, 3-methoxy-5-(3-(oxetan-3-yl)-3H-imidazo[4,5-c]pyridin-2-yl)benzene-1,2-diol]: 10 to 100 µM.
As for `COc1cc(-c2nc3ccccc3n2C2CC2)c(C)c(O)c1O` [Example 324, 4-(1-cyclopropyl-1H-benzo[d]imidazol-2-yl)-6-methoxy-3-methylbenzene-1,2-diol], the IC50 lay within 1 to 10 µM.
Next, `COc1cc(-c2nc3ccc(C(=O)NCC(F)F)cc3n2C2(C)COC2)c(F)c(O)c1O` [Example 251, N-(2,2-difluoroethyl)-2-(2-fluoro-3,4-dihydroxy-5-methoxyphenyl)-1-(3-methyloxetan-3-yl)-1H-1,3-benzodiazole-6-carboxamide]: at most 0.1 µM; `COc1cc(-c2nc3cc(N4CCOCC4)cnc3[nH]2)cc(O)c1O` [Example 70, 3-methoxy-5-(6-morpholino-3H-imidazo[4,5-b]pyridin-2-yl)benzene-1,2-diol]: over 100 µM; `COc1cc(-c2nc3ccc(NC(=O)c4ccc(F)cc4)cc3n2C2(C)COC2)c(F)c(O)c1O` [Example 305, 4-fluoro-N-(2-(2-fluoro-3,4-dihydroxy-5-methoxyphenyl)-1-(3-methyloxetan-3-yl)-1H-benzo[d]imidazol-6-yl)benzamide]: at most 0.1 µM.
Next, `COc1cc(-c2nc3cc(Cl)c(Cl)cc3[nH]2)c(F)c(O)c1O` [Example 300, 4-(5,6-dichloro-1H-benzo[d]imidazol-2-yl)-3-fluoro-6-methoxybenzene-1,2-diol]: 10 to 100 µM; `COc1cc(-c2nc3ccncc3n2C)c(C)c(O)c1O` [Example 54, 6-methoxy-3-methyl-4-(3-methyl-3H-imidazo[4,5-c]pyridin-2-yl)benzene-1,2-diol]: 10 to 100 µM; `COc1cc(-c2nc3ccccc3n2C2(C)CCOC2)c(C)c(O)c1O` (stereo not shown) [Example 158, 6-methoxy-3-methyl-4-(1-(3-methyltetrahydrofuran-3-yl)-1H-benzo[d]imidazol-2-yl)benzene-1,2-diol]: 1 to 10 µM.
Next, `COc1cc(-c2nc3ccc(C(=O)NC4CCN(C)C4)cc3n2C2(C)COC2)c(F)c(O)c1O` (stereo not shown) [Example 257, 2-(2-fluoro-3,4-dihydroxy-5-methoxyphenyl)-1-(3-methyloxetan-3-yl)-N-(1-methylpyrrolidin-3-yl)-1H-benzo[d]imidazole-6-carboxamide]: 0.1 to 1 µM.
On to `COc1cc(-c2nc3ccncc3[nH]2)cc(O)c1O` [Example 12, 5-(3H-imidazo[4,5-c]pyridin-2-yl)-3-methoxybenzene-1,2-diol], for which the IC50 fell in the range of 10 to 100 µM.
Next, `COc1cc(-c2nc3ccc(C(=O)NC4CC4)cc3n2C2(C)COC2)c(F)c(O)c1O` [Example 253, N-cyclopropyl-2-(2-fluoro-3,4-dihydroxy-5-methoxyphenyl)-1-(3-methyloxetan-3-yl)-1H-benzo[d]imidazole-6-carboxamide]: at most 0.1 µM; `O=C(O)c1ccc(-c2nc3cc(N4CCN(C(=O)c5ccccc5)CC4)ccc3[nH]2)cc1O` [Example 118, 4-(5-(4-benzoylpiperazin-1-yl)-1H-benzo[d]imidazol-2-yl)-2-hydroxybenzoic acid]: 10 to 100 µM.
Next, `COc1cc(-c2nc3ccc(-n4cccn4)cc3n2C2(C)COC2)c(F)c(O)c1O` [Example 184, 3-fluoro-6-methoxy-4-[1-(3-methyloxetan-3-yl)-6-(1H-pyrazol-1-yl)-1H-1,3-benzodiazol-2-yl]benzene-1,2-diol]: at most 0.1 µM; `COc1cc(-c2nc3ccc(N4CCOC4=O)cc3n2C2(C)COC2)c(F)c(O)c1O` [Example 276, 3-(2-(2-fluoro-3,4-dihydroxy-5-methoxyphenyl)-1-(3-methyloxetan-3-yl)-1H-benzo[d]imidazol-6-yl)oxazolidin-2-one]: at most 0.1 µM; `COc1cc(-c2nc3cc(N4CCN(c5ccccc5)CC4)ccc3[nH]2)cc(O)c1O` [Example 53, 3-methoxy-5-(5-(4-phenylpiperazin-1-yl)-1H-benzo[d]imidazol-2-yl)benzene-1,2-diol]: over 100 µM.
Next, `COc1cc(-c2nc3cc(N4CCCC4=O)ccc3n2C2(C)COC2)c(F)c(O)c1O` [Example 190, 1-[2-(2-fluoro-3,4-dihydroxy-5-methoxyphenyl)-1-(3-methyloxetan-3-yl)-1H-1,3-benzodiazol-5-yl]pyrrolidin-2-one]: 0.1 to 1 µM; `C#CCCC1(CCC(=O)N2CCN(c3ccc4[nH]c(-c5cc(O)c(O)c(OC)c5)nc4c3)CC2)N=N1` [Example 88, 3-(3-(but-3-yn-1-yl)-3H-diazirin-3-yl)-1-(4-(2-(3,4-dihydroxy-5-methoxyphenyl)-1H-benzo[d]imidazol-5-yl)piperazin-1-yl)propan-1-one]: over 100 µM; `COc1cc(-c2nc3ccccc3n2C2CCOC2)cc(O)c1O` (stereo not shown) [Example 13, 3-methoxy-5-(1-(tetrahydrofuran-3-yl)-1H-benzo[d]imidazol-2-yl)benzene-1,2-diol]: 10 to 100 µM.
With `COc1cc(-c2nc3cc(N4CCC(c5ccccc5)CC4)ccc3[nH]2)cc(O)c1O` [Example 49, 3-methoxy-5-(5-(4-phenylpiperidin-1-yl)-1H-benzo[d]imidazol-2-yl)benzene-1,2-diol], the IC50 was over 100 µM.
Next, `COc1cc(-c2nc3ccc(C(=O)N4CCC4)cc3n2C2(C)COC2)c(F)c(O)c1O` [Example 177, 4-[6-(azetidine-1-carbonyl)-1-(3-methyloxetan-3-yl)-1H-1,3-benzodiazol-2-yl]-3-fluoro-6-methoxybenzene-1,2-diol]: 0.1 to 1 µM.
Next, `COc1cc(-c2nc3ccncc3[nH]2)c(C)c(O)c1O` [Example 78, 4-(3H-imidazo[4,5-c]pyridin-2-yl)-6-methoxy-3-methylbenzene-1,2-diol]: 10 to 100 µM; `COc1cc(-c2nc3cc(N4CCN(C(=O)c5ccc(Cl)cc5)CC4)ccc3[nH]2)cc(O)c1O` [Example 84, (4-chlorophenyl)(4-(2-(3,4-dihydroxy-5-methoxyphenyl)-1H-benzo[d]imidazol-5-yl)piperazin-1-yl)methanone]: over 100 µM; `COc1cc(-c2nc3cc(N4CCC(N(C)C)CC4)ccc3[nH]2)cc(O)c1O` [Example 74, 5-(5-(4-(dimethylamino)piperidin-1-yl)-1H-benzo[d]imidazol-2-yl)-3-methoxybenzene-1,2-diol]: 10 to 100 µM.
Next, `COc1cc(-c2nc3cc(N4CCN(C)CC4=O)ccc3n2C2(C)COC2)c(F)c(O)c1O` [Example 273, 1-(2-(2-fluoro-3,4-dihydroxy-5-methoxyphenyl)-1-(3-methyloxetan-3-yl)-1H-benzo[d]imidazol-5-yl)-4-methylpiperazin-2-one]: 0.1 to 1 µM; `COc1cc(-c2nc3cc(N4CCOCC4)ccc3n2C2CCOC2)cc(O)c1O` (stereo not shown) [Example 95, 3-methoxy-5-(5-morpholino-1-(tetrahydrofuran-3-yl)-1H-benzo[d]imidazol-2-yl)benzene-1,2-diol]: 10 to 100 µM; `COc1cc(-c2nc3ccccc3n2C(C)(C)C)c(F)c(O)c1O` [Example 330, 4-(1-(tert-butyl)-1H-benzo[d]imidazol-2-yl)-3-fluoro-6-methoxybenzene-1,2-diol]: 0.1 to 1 µM.
